Experimental findings from patent US10919896B2, “Preparation and uses of pyrimidinone derivatives” (Cancer Research Technology Limited, priority 2016, dated 2021) are described below.

Assay [1] relates to Cdc7 (pS53MCM2 levels in HCT116 cells). The experiment in a line: Cdc7 Cell Pharmacodynamics Assay Method 1: pS53MCM2 levels in HCT116 cells, 6 hours. The settings on record: Homo sapiens, HCT-116, 6 h, read-out: Biomarker Method 1 (pEC50) (converted). In kind it is cell-based. The text has this: This protocol describes a method to investigate the inhibition of Cdc7 activity of compounds by measuring pS53MCM2 levels in cells after treatment.
• HCT116 cells (wild type P53 positive) • McCoys 5A media (PAA Laboratories Ltd, E15-022) • 10% FCS (Sera Laboratories International Ltd, EU000F Batch:108005) • 100× L-Glutamine (Invitrogen, 25030-024) • D-PBS without CaCl2 and MgCl2 (Invitrogen, ref 14190-094) • Trypsin/EDTA (Invitrogen 25300-054) • 2% BSA in PBS • Cell Extraction Buffer (Invitrogen FNN0011) • Protease inhibitor cocktail (Sigma P-2714) • PMSF 0.3M stock in DMSO (Sigma P7626) • Antibody-rabbit pMCM2 Ser53 (Bethyl #A300-756A) • Antibody-goat MCM2 (Bethyl #A300-122A) • Antibody-goat Anti Rabbit IgG HRP (Perbio Science UK Ltd 31462) • 1×PBS • FACE Wash buffer (0.02% Triton X100 in 1×PBS) • SuperSignal ELISA Pico Chemiluminescent Substrate (Perbio Science UK Ltd 37070) Method • 72 hours prior to the start of the experiment plate 1×10^6 HCT 116 cells in a 150 cm^2 flask in complete McCoys 5A media (+10% FCS+1× L-glutamine). • Plate 20,000 HCT116 cells per well in standard TC treated 96 well plate in 100 μL complete McCoys 5A media. • Allow cells to settle overnight in incubator set at 37° C. and 5% CO2. • Remove intermediate plate from fridge and place at 37° C. overnight to allow to equilibrate. • Cell treatment: cell assay plate 100 μL; daughter to cell transfer volume 3.33 μL; daughter volume 45 μL; mother plate to daughter volume 5 μL. • Once all cells are treated remove the cells to the incubator and incubate for 6 hours. • Dilute the capture antibody (total MCM2#A300-122A) 1 in 250 in the required volume of PBS (5 mL per assay plate) and add 50 μL to each well of a Hybond plate excluding wells 12E to 12H. In these wells add 50 μL PBS. Seal the plate and incubate at room temperature for a minimum of 2 hours. • Defrost aliquot of Invitrogen Cell Extraction Buffer (FNN0011) on ice and supplement with appropriate volume of both Sigma protease inhibitor cocktail (P-2714) and PMSF (final conc 1 mM from a 1 M stock in DMSO). • After the 6 hour cell treatment time tap out the media from the assay plates and place them in the −70° C. freezer for at least 5 minutes. • Remove plates from freezer and add 20 μL of ice cold complete lysis buffer on ice. Incubate cells for 30 minutes at 4° C. • Add 80 μL per well 2% BSA. • Transfer 80 μL from the lysis plate to the same wells in the capture/ELISA plate. Cover with plate seal and incubate plates overnight at 4° C. • Wash plates with PBS, remove any residual remaining liquid and add 50 μL per well of pMCM2 Ser53 antibody (#A300-756A) diluted 1 in 100 in 2% BSA. Cover plate and incubate at room temperature for 2 hours with gentle shaking. • Wash plates with PBS, remove any residual remaining liquid and Incubate with 50 μL goat anti rabbit antibody (1 in 800 dilution in 2% BSA) for 1 hour at room temperature. • Wash plates with PBS, remove any residual remaining liquid and add 50 μL mixed SuperSignal Pico substrate. • Incubate each plate for 5 minutes at room temperature shielding the plates from direct light (with a cover plate). Read plates with the luminescent detection. Method 2A and 2B

In the next assay the target is Cdc7/ASK (Homo sapiens, UniProt O00311). In words: Cdc7 Biochemical Assay Method 1: 384 well ELISA, whole protein substrate MCM2, antibody against Phospho MCM2 (S53). Also noted: purchased. The settings on record: 2 μM ATP, read-out: Biochemical Method 1 (pIC50) (converted). In outline:
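MCM2 protein substrate was coated on nickel-chelate plates, then Cdc7/ASK was added with 2 μM ATP in 50 mM Tris-HCl pH 8.5, 10 mM MgCl2, 1 mM DTT, 4% DMSO, 90 min at room temperature. Phospho-MCM2 (S53) was detected by ELISA with an AP secondary and PNPP absorbance. IC50 was derived from % inhibition versus no-compound and no-enzyme controls.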
A general note: In an ELISA, binding on a coated surface is turned into a signal by an enzyme label.

A further assay concerns the target Cdc7/Dbf4 (Homo sapiens, UniProt O00311). The experiment in a line: Cdc7 Biochemical Assay Method 3: Cdc7/Dbf4 Enzyme TR-FRET Assay measuring pS40MCM2. The settings on record: 1 μM ATP, read-out: Biochemical Method 3 (pIC50) (converted). The procedure:
This protocol describes a method for assaying a compounds' ability to inhibit Cdc7 activity by measuring pS40MCM2 levels in a Cdc7/Dbf4 Enzyme TR-FRET Assay.
2.5 nM Cdc7/Dbf4 was incubated with 100 nM of biotin-labelled peptide 35-TDALTS(pS)PGRDLP in the presence of 1 μM ATP at 25° C. for 120 minutes. The phosphorylation of the peptide was detected using TR-FRET. Anti-Mcm2 (pS40) antibody, Terbium anti-rabbit secondary antibody and Streptavidin-Alexa Fluor488 form the detection system.
On the technique in general: TR-FRET usually uses a lanthanide donor and a delayed reading to cut background.

Cdc7/ASK, sequence (O00311 whole entry): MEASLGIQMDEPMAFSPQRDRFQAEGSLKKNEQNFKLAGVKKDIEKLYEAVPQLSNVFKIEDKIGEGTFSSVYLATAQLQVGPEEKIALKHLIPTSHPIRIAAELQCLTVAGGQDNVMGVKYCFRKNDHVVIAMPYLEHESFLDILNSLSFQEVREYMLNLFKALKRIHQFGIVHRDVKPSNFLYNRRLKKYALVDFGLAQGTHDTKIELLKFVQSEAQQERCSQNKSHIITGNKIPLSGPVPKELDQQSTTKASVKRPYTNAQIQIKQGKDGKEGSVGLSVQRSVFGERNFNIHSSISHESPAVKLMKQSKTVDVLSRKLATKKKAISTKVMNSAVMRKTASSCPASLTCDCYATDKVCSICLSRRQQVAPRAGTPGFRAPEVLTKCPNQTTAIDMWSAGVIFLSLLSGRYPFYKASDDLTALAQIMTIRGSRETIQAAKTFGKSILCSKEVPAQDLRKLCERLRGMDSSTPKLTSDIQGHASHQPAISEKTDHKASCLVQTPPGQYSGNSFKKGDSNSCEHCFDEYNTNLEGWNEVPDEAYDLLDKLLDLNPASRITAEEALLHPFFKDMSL
Cdc7/ASK, sequence (Q9UBU7 whole entry partner): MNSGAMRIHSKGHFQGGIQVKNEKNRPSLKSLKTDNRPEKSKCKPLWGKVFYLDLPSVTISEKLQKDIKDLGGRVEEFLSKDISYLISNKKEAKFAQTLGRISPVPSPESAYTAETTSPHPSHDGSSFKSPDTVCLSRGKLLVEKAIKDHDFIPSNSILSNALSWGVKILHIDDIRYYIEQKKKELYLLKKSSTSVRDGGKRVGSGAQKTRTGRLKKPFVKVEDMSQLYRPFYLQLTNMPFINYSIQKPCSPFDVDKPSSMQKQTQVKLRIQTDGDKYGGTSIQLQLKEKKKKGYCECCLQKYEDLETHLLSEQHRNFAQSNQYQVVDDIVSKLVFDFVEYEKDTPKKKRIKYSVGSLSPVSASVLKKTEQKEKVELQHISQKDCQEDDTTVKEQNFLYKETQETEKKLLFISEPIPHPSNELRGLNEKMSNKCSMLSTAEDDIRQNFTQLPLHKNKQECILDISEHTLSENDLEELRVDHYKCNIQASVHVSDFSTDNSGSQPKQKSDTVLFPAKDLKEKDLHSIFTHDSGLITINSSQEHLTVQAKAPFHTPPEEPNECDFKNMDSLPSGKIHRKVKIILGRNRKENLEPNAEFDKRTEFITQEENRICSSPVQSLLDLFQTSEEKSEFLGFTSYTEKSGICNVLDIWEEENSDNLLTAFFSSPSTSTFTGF
Cdc7/Dbf4, sequence (O00311 whole entry): as the sequence (O00311 whole entry) above
Cdc7/Dbf4, sequence (Q9UBU7 whole entry partner): as the sequence (Q9UBU7 whole entry partner) above

In the case of `CC(C)C1CN(c2nc(-c3ccnc(F)c3)[nH]c(=O)c2Cl)CCN1` (stereo not drawn) [Compound 310], the EC50 in assay [1] was 58.9 nM. Moreover, the IC50 at Cdc7/ASK is 3.47 nM.

For the compound `O=c1[nH]c(-c2ccncc2)nc(N2CCN(CCO)CC2)c1Cl` [Compound 125], the EC50 in assay [1] is 912 nM. The IC50 on Cdc7/ASK is 40.7 nM.

On to `C[C@H]1CN(c2nc(-c3ccncc3)[nH]c(=O)c2Cl)CCN1CC(F)(F)F` [Compound 181, 5-chloro-4-[(3S)-3-methyl-4-(2,2,2-trifluoroethyl)piperazin-1-yl]-2-(4-pyridyl)-1H-pyrimidin-6-one], for which the EC50 in assay [1] is 132 nM. Besides, the IC50 at Cdc7/ASK was 2.4 nM.

In the case of `CC1CCCN(c2nc(-c3ccncc3)[nH]c(=O)c2Cl)C1` (stereo not drawn) [Compound 105], the EC50 in assay [1] is 427 nM. Moreover, the IC50 at Cdc7/ASK was 14.1 nM.

As to `O=C(N1CCCN(c2nc(-c3ccncc3)[nH]c(=O)c2Cl)CC1)C(F)(F)F` [Compound 144], the EC50 in assay [1] is 589 nM. The IC50 on Cdc7/ASK is 9.33 nM.

Turning to `C[C@@H]1CN(c2nc(-c3ccncc3)[nH]c(=O)c2Cl)CCN1` [Compound 140], in assay [1], the EC50 was 457 nM. Moreover, on Cdc7/ASK, the IC50 is 6.03 nM.

In the case of `CC1(C)CN(c2nc(-c3ccncc3)[nH]c(=O)c2Cl)CCO1` [Compound 121], in assay [1], the EC50 was 117 nM. On Cdc7/ASK, the IC50 is 5.62 nM.

On to `O=c1[nH]c(-c2ccncc2)nc(N2CCC(F)CC2)c1Cl` [Compound 106], for which the EC50 in assay [1] was 70.8 nM. Also, the IC50 at Cdc7/ASK was 7.59 nM.

`O=c1[nH]c(-c2ccncc2)nc(N2CCN(CC3CCCC3)CC2)c1Cl` [Compound 84]: in assay [1], the EC50 is 589 nM. For the same compound, on Cdc7/ASK, the IC50 was 23.4 nM.

Take `CCN1CCN(c2nc(-c3ccncc3)[nH]c(=O)c2Cl)CC1` [Compound 31]: the EC50 in assay [1] is 398 nM. The IC50 on Cdc7/ASK was 39.8 nM.

Turning to `O=c1[nH]c(-c2ccncc2)nc(N2CCC(O)CC2)c1Cl` [Compound 104], the EC50 in assay [1] is 155 nM. On Cdc7/ASK, the IC50 was 3.8 nM.

Turning to `O=c1[nH]c(-c2ccncc2)nc(N2CCC(CO)CC2)c1Cl` [Compound 109], in assay [1], the EC50 is 151 nM. On Cdc7/ASK, the IC50 is 3.63 nM.

Take `O=c1[nH]c(-c2ccncc2)nc(N2CCOC(c3ccccc3)C2)c1Cl` (stereo not drawn) [Compound 91]: the EC50 in assay [1] is 3160 nM. Moreover, the IC50 on Cdc7/ASK is 66.1 nM.

Take `C[C@H]1CN(c2nc(-c3ccncc3)[nH]c(=O)c2Cl)CCN1C` [Compound 88]: in assay [1], the EC50 was 107 nM. The IC50 at Cdc7/ASK was 14.1 nM.

As for `O=c1[nH]c(-c2ccncc2)nc(N2CCC(C(F)(F)F)C2)c1Cl` (stereo not drawn) [Compound 135], in assay [1], the EC50 was 661 nM. The IC50 at Cdc7/ASK was 23.4 nM.

Take `C[C@H]1CN(c2nc(-c3ccnc(F)c3)[nH]c(=O)c2Cl)CCN1` [Compound 171]: the EC50 in assay [1] was 72.4 nM. In addition, the IC50 on Cdc7/ASK is 1.17 nM.

In the case of `CN1CCN(c2nc(-c3ccncc3)[nH]c(=O)c2Cl)CC1` [Compound 81], the EC50 in assay [1] is 195 nM. On Cdc7/ASK, the IC50 was 9.33 nM.

Turning to `O=c1[nH]c(-c2ccncc2)nc(N2CCSCC2)c1Cl` [Compound 128], the EC50 in assay [1] was 79.4 nM. Also, at Cdc7/ASK, the IC50 was 2.57 nM.

As to `CC(=O)N1CCN(c2nc(-c3ccncc3)[nH]c(=O)c2Cl)C[C@@H]1C` [Compound 78], the EC50 in assay [1] was 468 nM. Moreover, the IC50 at Cdc7/ASK is 2.29 nM.

For `CC1CCN(c2nc(-c3ccncc3)[nH]c(=O)c2Cl)CC1` [Compound 122], the EC50 in assay [1] is 417 nM. Besides, the IC50 at Cdc7/ASK is 6.61 nM.

Turning to `O=C(OCc1ccccc1)N1CCN(c2nc(-c3ccncc3)[nH]c(=O)c2Cl)CC1` [Compound 112], in assay [1], the EC50 was 759 nM. Besides, the IC50 at Cdc7/ASK is 6.17 nM.

As for `O=c1[nH]c(-c2ccncc2)nc(N2CCNC3(CCC3)C2)c1Cl` [Compound 158], in assay [1], the EC50 was 1740 nM. Moreover, at Cdc7/ASK, the IC50 is 19.5 nM.

For the compound `CC1(C)CN(c2nc(-c3ccncc3)[nH]c(=O)c2Cl)CCN1` [Compound 361], the EC50 in assay [1] is 2400 nM. For the same compound, the IC50 on Cdc7/ASK is 2.34 nM.

Regarding `O=c1[nH]c(-c2ccncc2)nc(N2CCNC(C(F)(F)F)C2)c1Cl` (stereo not drawn) [Compound 101], the EC50 in assay [1] was 44.7 nM. Moreover, the IC50 on Cdc7/ASK is 4.37 nM.

For `O=c1[nH]c(-c2ccncc2)nc(N2CCN(c3cccnc3)CC2)c1Cl` [Compound 116], the EC50 in assay [1] was 603 nM. For the same compound, the IC50 at Cdc7/ASK was 12.6 nM.

In the case of `O=c1[nH]c(-c2ccncc2)nc(N2CCN(CC(F)(F)C(F)F)CC2)c1Cl` [Compound 152], the EC50 in assay [1] is 871 nM. Also, at Cdc7/ASK, the IC50 was 19.5 nM.

`O=c1[nH]c(-c2ccncc2)nc(N2CCCC(O)C2)c1Cl` (stereo not drawn) [Compound 167]: the EC50 in assay [1] was 832 nM. The IC50 on Cdc7/ASK was 8.13 nM.

`CC(C)CN1CCN(c2nc(-c3ccncc3)[nH]c(=O)c2Cl)CC1` [Compound 82]: the EC50 in assay [1] is 977 nM. At Cdc7/ASK, the IC50 was 31.6 nM.

Regarding `O=c1[nH]c(-c2ccncc2)nc(N2CCOCC2)c1Cl` [Compound 89, 5-chloro-4-morpholino-2-(4-pyridyl)-1H-pyrimidin-6-one], the EC50 in assay [1] was 74.1 nM. Besides, on Cdc7/ASK, the IC50 was 2.29 nM.

In the case of `CC(F)(F)C1CN(c2nc(-c3ccncc3)[nH]c(=O)c2Cl)CCN1` (stereo not drawn) [Compound 156], the EC50 in assay [1] was 66.1 nM. Also, the IC50 at Cdc7/ASK is 3.98 nM.

As to `CC(C)CN1CCC(c2nc(-c3ccncc3)[nH]c(=O)c2Cl)CC1` [Compound 39, 5-chloro-4-(1-isobutyl-4-piperidyl)-2-(4-pyridyl)-1H-pyrimidin-6-one], the IC50 at Cdc7/Dbf4 is 5.75 nM; on Cdc7/ASK it was 8.32 nM.

Turning to `O=c1[nH]c(-c2ccncc2)nc(N2CCCN(CC(F)(F)F)CC2)c1Cl` [Compound 142], the EC50 in assay [1] was 661 nM. Further, at Cdc7/ASK, the IC50 is 15.5 nM.

For the compound `O=c1[nH]c(-c2ccncc2)nc(N2C[C@H]3C[C@@H]2CN3)c1Cl` [Compound 161], the results for the IC50 at Cdc7/Dbf4 and on Cdc7/ASK were 1.74 nM and 31.6 nM, respectively.

As to `O=c1[nH]c(-c2ccnc(F)c2)nc(C2CCOCC2)c1Cl` [Compound 13, 5-chloro-2-(2-fluoro-pyridin-4-yl)-6-(tetrahydro-pyran-4-yl)-3H-pyrimidin-4-one], the IC50 on Cdc7/Dbf4 was 0.759 nM; on Cdc7/ASK it was 1.23 nM.

For the compound `O=c1[nH]c(-c2ccncc2)nc(N2CCCN(CCO)CC2)c1Cl` [Compound 136], in assay [1], the EC50 is 2090 nM. The IC50 at Cdc7/ASK was 20 nM.

Regarding `O=c1[nH]c(-c2ccncc2)nc(N2CCC3(CC2)COC3)c1Cl` [Compound 151], the EC50 in assay [1] was 501 nM. For the same compound, at Cdc7/ASK, the IC50 was 34.7 nM.

Regarding `CC(C)CN1CCC(c2nc(-c3ccnc(F)c3)[nH]c(=O)c2Cl)CC1` [Compound 87], in assay [1], the EC50 is 148 nM. In addition, the IC50 on Cdc7/ASK is 3.02 nM.

As to `O=c1[nH]c(-c2ccncc2)nc(N2CCN(c3cccc(F)c3)CC2)c1Cl` [Compound 111], the EC50 in assay [1] was 759 nM. Besides, on Cdc7/ASK, the IC50 is 16.2 nM.

Consider `O=c1[nH]c(-c2ccncc2)nc(N2CCNC(c3ccc(Cl)cc3)C2)c1Cl` (stereo not drawn) [Compound 168], for which the IC50 is 1.91 nM on Cdc7/Dbf4 and 9.33 nM at Cdc7/ASK.
